Measured values: patent publication US5494893A, “Stylostatin 2” (Arizona Board of Regents, a body corporate acting on behalf …, priority 1994, dated 1996)
≈ marks a conversion by molar mass, not a printed value. Where a SMILES comes first, the peptide text is derived from it.

What was measured:
[1] = system: murine P388 lymphocytic leukemia (PS system) cell line; settings: earlier reported work (J. Org. Chem. 1992); cited from earlier work
[2] = system: U.S. National Cancer Institute panel of 60 human cancer cell lines; experiment: NCI panel of 60 human cancer cell lines, growth inhibition; assay type: cell-based; settings: NCI 60 cell line panel, quadruplicate tests, average over panel, 48 hours; read-out: overall panel-averaged GI50 concentration
Description: (§1) Current research in the control of cancer in the United States is coordinated by the National Cancer Institute (NCI). To determine whether a substance has anti-cancer properties, the NCI has established a systematic protocol. This protocol, which involves the testing of a substance against a standard cell line panel containing 60 human tumor cell lines, has been verified and has been accepted in scientific circles. The protocol, and the established statistical means for analyzing the results obtained by the standardized testing are fully described in the literature. See: Boyd, Dr. Michael R., Principles & Practice of Oncology, PPO Updates, Volume 3, Number 10, Oct. […]
(§2) Each drug is tested at five (5) doses: 100--10--1--0.1--0.01 μg/ml. Percent Growths are calculated for each dose. […]
(§3) At the start of an experiment, cells from the in vitro cell cultures are inoculated into the appropriate tubes or microtiter plates. One set of control tubes/plates is immediately counted to determine the number of cells at the start of the experiment. This is the "baseline count", or "Tzero reading". At the end of the experiment (48 hours later), a second set of control tubes/plates is analyzed to determine the "Control Growth" value. The growth (or death) of cells relative to the initial quantity of cells is used to define the "Percent of Growth".

OVCAR 3 = OVCAR 3 human cancer cell growth inhibition; assay type: cell-based; settings: OVCAR 3 cell line
Description: as §1, §2, §3

Molecule	P388 (PS system) cell line inhibition [1]	GI50 [2]	GI50 (OVCAR 3)
cyclo (Pro-Phe-Asn-Ser-Leu-Ala-Ile) (PFNSLAI; head-to-tail cyclic; printed: Pro-Phe-Asn-Ser-Leu-Ala-Ile) [stylostatin 1, cycloheptapeptide earlier isolated from the same Stylotella sp. sponge]	inhibitor		
CC[C@H](C)[C@@H]1NC(=O)[C@H](CC(C)C)NC(=O)[C@@H]2CCCN2C(=O)[C@H]([C@@H](C)CC)NC(=O)[C@@H]2CCCN2C(=O)[C@H](CO)NC(=O)[C@H](Cc2ccccc2)NC1=O [stylostatin 2, cyclo (Pro-Leu-Ile-Phe-Ser-Pro-Ile)] (cyclo(FSPIPLI))		6.2 µM	3.7 µg/mL (≈ 4.82 µM)
